Source: US5210193A, “Piperazine derivatives” (American Cyanamid Company, priority 1990, dated 1993)

Columns and labels:
Assay in all cases: in vitro antibacterial MIC, agar plate dilution
Type in all cases: cell-based
[1] = tested on: Acinetobacter calcoaceticus MOR 84-43; details: MOR8443, 18 hours, 35° C., read-out: MIC
Method in brief: (§1)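 Agar plate dilution on Mueller-Hinton agar, inoculum about 10^4 CFU per spot applied with a Steers replicator. MIC (mcg/ml) is the lowest compound concentration preventing visible growth after 18 h at 35 °C.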

[2] = tested on: Enterobacter aerogenes VGH 84-36; details: Klebsiella aerogenes, VGH8436, 18 hours, 35° C., read-out: MIC
Method in brief: as §1

[3] = tested on: Enterobacter cloacae K 84-10; details: Enterobacter cloacae, K8410, 18 h, 35° C., read-out: MIC
Method in brief: as §1

[4] = tested on: Enterobacter cloacae VGH 84-37; details: Enterobacter cloacae, VGH8437, 18 h, 35° C., read-out: MIC
Method in brief: as §1

[5] = tested on: Escherichia coli ATCC 25922; details: Escherichia coli, ATCC25922, 18 h, 35° C., read-out: MIC
Method in brief: as §1

[6] = tested on: Escherichia coli CMC 84-11; details: Escherichia coli, CMC8411, 18 h, 35° C., read-out: MIC
Method in brief: as §1

[7] = tested on: Escherichia coli CMC 84-16; details: Escherichia coli, CMC8416, 18 h, 35° C., read-out: MIC
Method in brief: as §1

Escherichia coli NAR 311 = details: NAR311, 18 hours, 35° C., read-out: MIC
Method in brief: as §1

[8] = tested on: Escherichia coli PRNT 311; details: PRNT311, 18 hours, 35° C., read-out: MIC
Method in brief: as §1

[9] = tested on: Klebsiella oxytoca MOR 84-28; details: MOR8428, 18 hours, 35° C.
Method in brief: as §1

Klebsiella pneumoniae AD = details: Klebsiella pneumoniae, 18 h, 35° C., read-out: MIC
Method in brief: as §1

[10] = tested on: Klebsiella pneumoniae MOR 84-4; details: Klebsiella pneumoniae, MOR844, 18 h, 35° C., read-out: MIC
Method in brief: as §1

[11] = tested on: Morganella morganii CMC 84-37; details: Morganella morganii, CMC8437, 18 h, 35° C., read-out: MIC
Method in brief: as §1

[12] = tested on: Morganella morganii VGH 84-11; details: VGH8411, 18 hours, 35° C., read-out: MIC
Method in brief: as §1

[13] = tested on: Proteus rettgeri CMC 84-41; details: Providencia rettgeri, CMC8441, 18 h, 35° C., read-out: MIC
Method in brief: as §1

[14] = tested on: Pseudomonas aeruginosa LL-1244; details: Pseudomonas aeruginosa, LL1244, 18 h, 35° C., read-out: MIC
Method in brief: as §1

[15] = tested on: Pseudomonas aeruginosa VGH 84-4; details: Pseudomonas aeruginosa, VGH844, 18 h, 35° C., read-out: MIC
Method in brief: as §1

[16] = tested on: Serratia marcescens F 0-35; details: Serratia marcescens, F035, 18 h, 35° C., read-out: MIC
Method in brief: as §1

[17] = tested on: Serratia marcescens K 84-18; details: Serratia marcescens, K8418, 18 h, 35° C., read-out: MIC
Method in brief: as §1

[18] = tested on: Staphylococcus Spp saprophiticus VGH 84-50; details: 18 hours, 35° C., read-out: MIC
Method in brief: as §1

[19] = tested on: Staphylococcus aureus ATCC 25913; details: ATCC25913, 18 hours, 35° C.
Method in brief: as §1

[20] = tested on: Staphylococcus aureus ATTC 29213; details: Staphylococcus aureus, ATTC29213, 18 h, 35° C., read-out: MIC
Method in brief: as §1

[21] = tested on: Staphylococcus aureus CMC 83-127; details: Staphylococcus aureus, CMC83127, 18 h, 35° C., read-out: MIC
Method in brief: as §1

[22] = tested on: Staphylococcus aureus CMC 83-128; details: CMC83128, 18 hours, 35° C., read-out: MIC
Method in brief: as §1

[23] = tested on: Staphylococcus aureus Smith; details: Staphylococcus aureus, 18 h, 35° C., read-out: MIC
Method in brief: as §1

[24] = tested on: Staphylococcus aureus VGH 84-45; details: Staphylococcus aureus, VGH8445, 18 h, 35° C., read-out: MIC
Method in brief: as §1

[25] = tested on: Staphylococcus aureus VGH 84-46; details: Staphylococcus aureus, VGH8446, 18 h, 35° C., read-out: MIC
Method in brief: as §1

[26] = tested on: Staphylococcus epidermidis CMC 83-135; details: CMC83135, 18 hours, 35° C., read-out: MIC
Method in brief: as §1

[27] = tested on: Staphylococcus epidermidis IO 83-58; details: IO8358, 18 hours, 35° C., read-out: MIC
Method in brief: as §1

[28] = tested on: Staphylococcus epidermidis VGH 84-40; details: VGH8440, 18 hours, 35° C., read-out: MIC
Method in brief: as §1

[29] = tested on: Streptococcus faecalis ATTC 29212; details: Enterococcus faecalis, ATTC29212, 18 hours, 35° C., read-out: MIC
Method in brief: as §1

[30] = tested on: Streptococcus faecalis VGH 84-65; details: Enterococcus faecalis, VGH8465, 18 h, 35° C., read-out: MIC
Method in brief: as §1

Measured: MIC

CCn1cc(C(=O)O)c(=O)c2cc(F)c(N3CCNC(c4ccsc4)C3)cc21 (centres unmarked) [Example 30]
1 µg/mL: [16]
32 µg/mL: [14]
0.12 µg/mL: [4] | [5] | [6] | Klebsiella pneumoniae AD | [12] | [21] | [23]
0.25 µg/mL: [7] | [10] | [11] | [13] | [19] | [24] | [25] | [26] | [28]
0.5 µg/mL: [2] | [3] | [8] | [9] | [17] | [20] | [22] | [27]
2 µg/mL: [18]
4 µg/mL: [1] | Escherichia coli NAR 311 | [15] | [29] | [30]
